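Dose response: 5 concentrations. Exposure: 48 h. Format: 96-well plates. Endpoint: linear interpolation; highest concentration if not reached. TGI marks complete inhibition of growth.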
Assays:
Assay in all cases: inhibition of tumour cell growth, NCI panel, 48 h
A498 renal = system: A498 renal
ACHN renal = system: ACHN renal
BT-549 breast = system: BT-549 breast
COLO 205 colon = system: COLO 205 colon
DU-145 prostate = system: DU-145 prostate
EKVX NSCLC = system: EKVX NSCLC
HCC-2998 colon = system: HCC-2998 colon
HCT-15 colon = system: HCT-15 colon
HOP-62 NSCLC = system: HOP-62 NSCLC
HS 578T breast = system: HS 578T breast
HT29 colon = system: HT29 colon
IGROV1 ovarian = system: IGROV1 ovarian
K-562 leukemia = system: K-562 leukemia
KM12 colon = system: KM12 colon
LOX IMVI melanoma = system: LOX IMVI melanoma
M14 melanoma = system: M14 melanoma
MALME-3M melanoma = system: MALME-3M melanoma
MCF7 breast = system: MCF7 breast
MDA-MB-435 = system: MDA-MB-435
MDA-N = system: MDA-N
MOLT-4 leukemia = system: MOLT-4 leukemia
NCI-H226 lung = system: NCI-H226 lung
NCI-H23 lung = system: NCI-H23 lung
NCI-H460 lung = system: NCI-H460 lung
OVCAR-5 ovarian = system: OVCAR-5 ovarian
PC-3 prostate = system: PC-3 prostate
RPMI-8226 leukemia = system: RPMI-8226 leukemia
RXF 393 renal = system: RXF 393 renal
SF-268 CNS = system: SF-268 CNS
SF-295 CNS = system: SF-295 CNS
SK-MEL-2 melanoma = system: SK-MEL-2 melanoma
SK-MEL-5 melanoma = system: SK-MEL-5 melanoma
SK-OV-3 ovarian = system: SK-OV-3 ovarian
SN12C renal = system: SN12C renal
SNB-75 CNS = system: SNB-75 CNS
TK-10 renal = system: TK-10 renal
U251 CNS = system: U251 CNS
UACC-257 melanoma = system: UACC-257 melanoma
UACC-62 melanoma = system: UACC-62 melanoma
UO-31 renal = system: UO-31 renal
786-0 renal = system: 786-0 renal
A549 NSCLC = system: A549 NSCLC
CAKI-1 renal = system: CAKI-1 renal
HCT-116 colon = system: HCT-116 colon
HOP-92 NSCLC = system: HOP-92 NSCLC
MDA-MB-231 breast = system: MDA-MB-231 breast
NCI-H522 lung = system: NCI-H522 lung
OVCAR-4 ovarian = system: OVCAR-4 ovarian
OVCAR-8 ovarian = system: OVCAR-8 ovarian
SF-539 CNS = system: SF-539 CNS
SK-MEL-28 melanoma = system: SK-MEL-28 melanoma
SNB-19 CNS = system: SNB-19 CNS
SW-620 colon = system: SW-620 colon

With `CC(=O)OC1C(C)OC(OC(=O)C2CCC3C(C2)OC2(CC(OC(=O)/C=C/c4ccccc4)C(C)CO2)C32CO2)C(OC2OC(C)C(O)C(OC(C)=O)C2O)C1O` (configuration not stated) the TGI (A498 renal) was 0.286 µM, the TGI (ACHN renal) was 1.19 µM and the TGI (BT-549 breast) was less than 0.0335 µM. The TGI (COLO 205 colon) was greater than 100 µM, the TGI (DU-145 prostate) was 0.0213 µM and the TGI (EKVX NSCLC) was 1.27 µM. For the same compound, the TGI (HCC-2998 colon) was less than 0.01 µM, the TGI (HCT-15 colon) was 5.8 µM and the TGI (HOP-62 NSCLC) was greater than 100 µM. The TGI (HS 578T breast) was less than 0.01 µM, the TGI (HT29 colon) was less than 0.01 µM and the TGI (IGROV1 ovarian) was less than 0.01 µM. It also gave a TGI (K-562 leukemia) greater than 100 µM, a TGI (KM12 colon) of less than 0.0123 µM and a TGI (LOX IMVI melanoma) of less than 0.01 µM. The TGI (M14 melanoma) was 0.104 µM, the TGI (MALME-3M melanoma) was less than 0.01 µM and the TGI (MCF7 breast) was greater than 100 µM. It also gave a TGI (MDA-MB-435) of less than 0.01 µM, a TGI (MDA-N) of less than 0.01 µM and a TGI (MOLT-4 leukemia) of less than 0.01 µM. The TGI (NCI-H226 lung) was less than 0.01 µM, the TGI (NCI-H23 lung) was less than 0.01 µM and the TGI (NCI-H460 lung) was less than 0.0125 µM. It also gave a TGI (OVCAR-5 ovarian) of 0.0407 µM, a TGI (PC-3 prostate) of 0.0402 µM and a TGI (RPMI-8226 leukemia) of less than 0.01 µM. For the same compound, the TGI (RXF 393 renal) was less than 0.0434 µM, the TGI (SF-268 CNS) was less than 0.0136 µM and the TGI (SF-295 CNS) was less than 0.0304 µM. The TGI (SK-MEL-2 melanoma) was less than 0.01 µM, the TGI (SK-MEL-5 melanoma) was 0.165 µM and the TGI (SK-OV-3 ovarian) was greater than 100 µM. It also gave a TGI (SN12C renal) of less than 0.01 µM, a TGI (SNB-75 CNS) of less than 0.01 µM and a TGI (TK-10 renal) greater than 100 µM. It also gave a TGI (U251 CNS) of less than 0.01 µM, a TGI (UACC-257 melanoma) of less than 0.0137 µM and a TGI (UACC-62 melanoma) of less than 0.01 µM. It also gave a TGI (UO-31 renal) of 2.96 µM.
For `CNC(=S)N/N=C(\C(=N/NC(=S)NC)c1ccccn1)c1ccccn1`, the TGI (786-0 renal) was greater than 84.8 µM, the TGI (A498 renal) was greater than 100 µM and the TGI (A549 NSCLC) was greater than 100 µM. The TGI (ACHN renal) was greater than 44.6 µM, the TGI (BT-549 breast) was greater than 100 µM and the TGI (CAKI-1 renal) was greater than 100 µM. It also gave a TGI (COLO 205 colon) greater than 100 µM, a TGI (DU-145 prostate) greater than 100 µM and a TGI (EKVX NSCLC) greater than 100 µM. It also gave a TGI (HCC-2998 colon) greater than 100 µM, a TGI (HCT-116 colon) greater than 100 µM and a TGI (HCT-15 colon) greater than 100 µM. For the same compound, the TGI (HOP-62 NSCLC) was greater than 53.5 µM, the TGI (HOP-92 NSCLC) was greater than 100 µM and the TGI (HS 578T breast) was 99.1 µM. It also gave a TGI (HT29 colon) greater than 100 µM, a TGI (IGROV1 ovarian) greater than 100 µM and a TGI (K-562 leukemia) greater than 100 µM. It also gave a TGI (KM12 colon) greater than 100 µM, a TGI (LOX IMVI melanoma) greater than 100 µM and a TGI (M14 melanoma) of 24.5 µM. It also gave a TGI (MALME-3M melanoma) of 98 µM, a TGI (MCF7 breast) greater than 100 µM and a TGI (MDA-MB-231 breast) greater than 100 µM. The TGI (MDA-MB-435) was greater than 100 µM, the TGI (MDA-N) was greater than 100 µM and the TGI (NCI-H226 lung) was greater than 75.1 µM. The TGI (NCI-H23 lung) was greater than 68.5 µM, the TGI (NCI-H460 lung) was greater than 100 µM and the TGI (NCI-H522 lung) was 72.8 µM. The TGI (OVCAR-4 ovarian) was greater than 100 µM, the TGI (OVCAR-5 ovarian) was greater than 100 µM and the TGI (OVCAR-8 ovarian) was greater than 100 µM. The TGI (PC-3 prostate) was greater than 100 µM, the TGI (RPMI-8226 leukemia) was greater than 100 µM and the TGI (RXF 393 renal) was 41.1 µM. The TGI (SF-268 CNS) was greater than 63.6 µM, the TGI (SF-295 CNS) was greater than 83.2 µM and the TGI (SF-539 CNS) was greater than 100 µM. It also gave a TGI (SK-MEL-2 melanoma) greater than 100 µM, a TGI (SK-MEL-28 melanoma) greater than 100 µM and a TGI (SK-MEL-5 melanoma) greater than 67.6 µM. It also gave a TGI (SK-OV-3 ovarian) greater than 100 µM, a TGI (SN12C renal) greater than 100 µM and a TGI (SNB-19 CNS) greater than 100 µM. It also gave a TGI (SNB-75 CNS) greater than 92.6 µM, a TGI (SW-620 colon) greater than 100 µM and a TGI (TK-10 renal) greater than 100 µM. The TGI (U251 CNS) was greater than 100 µM, the TGI (UACC-257 melanoma) was greater than 100 µM and the TGI (UACC-62 melanoma) was greater than 100 µM. For the same compound, the TGI (UO-31 renal) was greater than 69.6 µM.

— PubChem BioAssay (NCI)
